Several values for one entry are separate records, joined by “and”; a condition that tells them apart may be missing. Identical values can stand only once.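 All cell lines were grown in 96-well plates and treated with compound for 48 hours. GI50 = concentration required for 50% inhibition of growth. TGI: concentration producing complete growth inhibition.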
How the values were obtained:
Assay in all cases: NCI tumour cell line growth inhibition, 48 h
SK-MEL-5 melanoma = tested on: SK-MEL-5 melanoma
HCT-116 colon = tested on: HCT-116 colon
SNB-19 CNS = tested on: SNB-19 CNS
HL-60(TB) leukemia = tested on: HL-60(TB) leukemia
HT29 colon = tested on: HT29 colon
OVCAR-4 ovarian = tested on: OVCAR-4 ovarian
COLO 205 colon = tested on: COLO 205 colon
IGROV1 ovarian = tested on: IGROV1 ovarian
SF-268 CNS = tested on: SF-268 CNS
SNB-75 CNS = tested on: SNB-75 CNS

Row | SMILES | TGI (SK-MEL-5 melanoma) | TGI (HCT-116 colon) [µM] | TGI (SNB-19 CNS) | TGI (HL-60(TB) leukemia) | TGI (HT29 colon) | TGI (OVCAR-4 ovarian) | TGI (COLO 205 colon) [µM] | TGI (IGROV1 ovarian) [µM] | GI50 (SK-MEL-5 melanoma) [µM] | GI50 (HCT-116 colon) [µM] | GI50 (SNB-19 CNS) [µM] | GI50 (HL-60(TB) leukemia) | GI50 (SF-268 CNS) [µM] | TGI (SF-268 CNS) | GI50 (OVCAR-4 ovarian) [µM] | GI50 (SNB-75 CNS) [µM] | TGI (SNB-75 CNS) [µM] | GI50 (COLO 205 colon) [µM] | GI50 (IGROV1 ovarian) [µM] | GI50 (HT29 colon) [µM]
1 | O=C(Nc1ccc(Cl)cc1Cl)C(=O)C(C(=O)c1ccc2ccccc2c1)C1OC(=O)c2ccccc21 (configuration not stated) | 26.1 µM | 18 | 22.1 µM | 23.9 µM | 33.1 µM | 35.2 µM | 57 | 57.7 |  |  |  |  |  |  |  |  |  |  |  | 
2 | COc1ccc2c(c1)/C(=C\c1cccnc1)C(=O)N2 | 45.7 µM | > 100 | 51.6 µM | > 100 µM |  | > 100 µM | > 100 | > 100 | 16.5 | 9.72 | 16.2 | 24.7 µM | 12.9 | 37 µM | 38.2 | 27.9 | 68.1 | 26.2 | 32.2 | 
3 | O=C(O)C1C2CCC(O2)C1C(=O)N1CCCCC1 (configuration not stated) | 29.7 µM | 22.6 | 38.2 µM |  | 15.1 µM | 24.4 µM | 3.87 | 74.6 |  |  |  |  |  | 28.9 µM |  |  | 17.2 |  |  | 
4 | CCCNCCCC(NC(C)=O)C(=O)NCc1ccccc1 (configuration not stated) | > 100 µM | > 100 | > 100 µM |  | > 100 µM | > 100 µM | > 100 | > 100 |  |  |  |  |  | > 100 µM |  |  | > 100 |  |  | 
5 | O=C(c1ccc(Cl)cc1)c1ccc(OCCCCCCCCCCOc2ccc(C(=O)c3ccc(Cl)cc3)cc2)cc1 | > 100 µM |  | > 100 µM | > 100 µM | > 100 µM |  | > 100 | > 100 |  |  |  |  |  | > 100 µM |  |  | > 100 |  |  | 
6 | Oc1cc(O)c(Oc2cccc(O)c2O)c(O)c1 | 38.7 µM |  | > 100 µM | > 100 µM | > 100 µM | 31.6 µM | > 100 | > 100 |  |  |  |  |  | > 100 µM |  |  | > 100 |  |  | 
7 | FC(F)(F)c1cc(-c2nnc3n2N=C(N2CCCC2)CS3)cc(C(F)(F)F)c1 | > 50 µM | > 50 | > 50 µM |  | > 50 µM | > 50 µM | > 50 | > 50 | > 50 | 7.99 | 30.2 |  | > 50 | > 50 µM | > 50 | 7.12 | 24.4 | > 50 | > 50 | > 50
8 | Nc1nc2c(c(=O)[nH]1)NC(CO)CN2 (configuration not stated) |  | > 100 | > 100 µM | > 100 µM | > 100 µM |  | > 100 | > 100 |  |  |  |  |  |  |  |  | > 100 |  |  | 
9 | COC1=CC(=O)C2C(C1=O)[C@@H]1c3ccccc3C[C@H]21 (some centres not stated) | > 100 µM |  | > 100 µM | > 100 µM | > 100 µM | > 100 µM | > 100 | > 100 |  |  |  |  |  | > 100 µM |  |  | > 100 |  |  | 
10 | CC(=O)N[C@@H]1C(O)CN2C(=O)C(=O)O[C@H](C(O)CO)[C@@H]12 (some centres not stated) |  | > 100 | > 100 µM | > 100 µM | > 100 µM |  | > 100 | > 100 |  |  |  |  |  | > 100 µM |  |  | > 100 |  |  | 
11 | COc1ccc(-c2cc(=O)c3c(C)cc(C)nc3[nH]2)cc1 | 33.1 µM | > 100 | > 100 µM | 35.4 µM | > 100 µM | > 100 µM | 42.6 | 84.8 | 17.6 | 36.5 |  |  |  | > 100 µM |  |  |  |  |  | 
12 | CC[C@@]1(O)C[C@H](OC2CC(N(C)C)C(OC3CC(O)C(OC4CCC(=O)C(C)O4)C(C)O3)C(C)O2)c2c(cc3c(c2O)C(=O)c2c(O)cccc2C3=O)[C@H]1C(=O)OC (some centres not stated) | 0.0592 µM and 0.164 µM |  | 1.98 µM and 2.21 µM | 0.0613 µM and 0.177 µM | 0.903 µM and 0.318 µM | 0.221 µM and 0.196 µM |  |  |  |  |  | 0.00866 µM and 0.0039 µM |  | 0.371 µM and 2.79 µM |  |  |  |  |  | 
13 | Cc1c(S(C)(=O)=O)c(-c2cc(F)cc(N3CCN(c4ccc(NS(=O)(=O)c5ccc(N[C@H](CCN6CCC(C(=O)OCCCP(=O)(O)O)CC6)CSc6ccccc6)c(S(=O)(=O)C(F)(F)F)c5)cc4)CC3)c2)c(-c2ccc(Cl)cc2)n1C(C)C | > 100 µM | > 100 | > 100 µM |  | > 100 µM | > 100 µM | > 100 | > 100 | > 100 | > 100 | 68.1 |  | > 100 | > 100 µM | > 100 | > 100 | > 100 | > 100 | > 100 | > 100
14 | C1C[OH+]CC[OH+]CCNCC[OH+]CC[OH+]CCN1.[Cl-].[Pt+4] | > 100 µM | > 100 | > 100 µM |  | > 100 µM | > 100 µM | > 100 | > 100 | > 100 | > 100 | > 100 |  | > 100 | > 100 µM | > 100 | > 100 | > 100 | > 100 | > 100 | > 100

From PubChem BioAssay (NCI)
